Paper PMC6503537, “Synthesis of HDAC Substrate Peptidomimetic Inhibitors Using Fmoc Amino Acids Incorporating Zinc-Binding Groups” (Organic Letters, 2019)
One block for each molecule: values may come before it. Starred links: 1 amine or outer side, 2 acyl side, 3 side chain; linkers in the order of their positions; H or OH if unused. Non-standard residues stand in square brackets, D forms with d. Residues, ends and D or L forms follow the SMILES beside them. *: point of attachment. X1 = CCC(=O)CCCCC[C@H](N[*:1])C(=O)[*:2]; Asu = N[C@@H](CCCCCC(=O)O)C(=O)O; NHOH = ON*

Legend:
various HDACs = test system: various HDACs; parameters: method as in PMID 25738536; conditions: FDA approved HDAC inhibitors; cited from earlier work
HDAC1-MTA1-RBBP4 = HDAC1-MTA1-RBBP4 (Homo sapiens, UniProt Q09028+Q13330+Q13547); test: Fluorescence-based HDAC inhibition assay (BOC-Lys-AMC substrate); format: biochemical; conditions: 50 nM HDAC1-MTA1-RBBP4, 30 min at 37 °C
Method: SPIs 11–14 were assessed in a fluorescence-based inhibition assay to determine potency as HDAC inhibitors (Table 2). […] The lower activity of SPIs 12–13 can be attributed to the lower zinc binding affinity of ketones. In the future these amino acids will be incorporated in various histone tails to generate a library to identify important binding interactions through additional crystal structure studies. The cell permeability of these peptides will also be investigated to determine their usefulness as cellular probes.
HDAC activity was measured by using fluorescent BOC-Lys-AMC substrate in a black 96-well format. 50 nM HDAC1-MTA1-RBBP4 was incubated with inhibitor and 100 µM BOC-Lys-AMC substrate for 30 min at 37 °C in a final volume of 50 µl (50 mM Tris pH 7.5, 150 mM NaCl, 5% Glycerol). The assay was developed by the addition of 50 µl of developer solution (2 µM TSA, 10 mg ml -1 Trypsin, 50 mM Tris pH 7.5, 100 mM NaCl). Fluorescence was measured at 335/460 nm using a Victor X5 plate reader (Perkin Elmer). All measurements were performed in triplicate and data analysed using GraphPad Prism (version 7.0, GraphPad Software, Inc). In the case of titrations IC50 values were calculated by nonlinear curve fitting with a one-site binding (hyperbola) model (Y=Bmax*X/(Kd+X).
Sequence Yield Purity IC50 Retention time Peptide content
(1 picture or pasted object on this page, not shown here)

class I HDAC = conditions: cited from earlier work
Excerpt: These inhibitors function by coordinating with the HDAC active site zinc through a side chain that has zinc binding properties such as a hydroxamic acid or ethyl ketone.

Sequence of HDAC1-MTA1-RBBP4 (Q13547 whole entry): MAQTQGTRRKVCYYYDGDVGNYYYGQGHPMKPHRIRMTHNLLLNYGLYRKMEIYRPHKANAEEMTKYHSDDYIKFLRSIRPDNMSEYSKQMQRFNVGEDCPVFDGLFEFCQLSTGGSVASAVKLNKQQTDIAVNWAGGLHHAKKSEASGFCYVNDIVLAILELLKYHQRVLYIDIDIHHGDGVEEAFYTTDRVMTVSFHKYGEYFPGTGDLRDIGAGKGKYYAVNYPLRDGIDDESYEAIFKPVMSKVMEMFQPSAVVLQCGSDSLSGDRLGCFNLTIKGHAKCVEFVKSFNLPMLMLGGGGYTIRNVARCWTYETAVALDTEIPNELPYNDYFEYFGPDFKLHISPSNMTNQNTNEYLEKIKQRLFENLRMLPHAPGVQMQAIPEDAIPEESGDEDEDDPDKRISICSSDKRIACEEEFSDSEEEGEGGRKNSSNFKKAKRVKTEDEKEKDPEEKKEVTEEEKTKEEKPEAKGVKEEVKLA
Sequence of HDAC1-MTA1-RBBP4 (Q13330 whole entry partner): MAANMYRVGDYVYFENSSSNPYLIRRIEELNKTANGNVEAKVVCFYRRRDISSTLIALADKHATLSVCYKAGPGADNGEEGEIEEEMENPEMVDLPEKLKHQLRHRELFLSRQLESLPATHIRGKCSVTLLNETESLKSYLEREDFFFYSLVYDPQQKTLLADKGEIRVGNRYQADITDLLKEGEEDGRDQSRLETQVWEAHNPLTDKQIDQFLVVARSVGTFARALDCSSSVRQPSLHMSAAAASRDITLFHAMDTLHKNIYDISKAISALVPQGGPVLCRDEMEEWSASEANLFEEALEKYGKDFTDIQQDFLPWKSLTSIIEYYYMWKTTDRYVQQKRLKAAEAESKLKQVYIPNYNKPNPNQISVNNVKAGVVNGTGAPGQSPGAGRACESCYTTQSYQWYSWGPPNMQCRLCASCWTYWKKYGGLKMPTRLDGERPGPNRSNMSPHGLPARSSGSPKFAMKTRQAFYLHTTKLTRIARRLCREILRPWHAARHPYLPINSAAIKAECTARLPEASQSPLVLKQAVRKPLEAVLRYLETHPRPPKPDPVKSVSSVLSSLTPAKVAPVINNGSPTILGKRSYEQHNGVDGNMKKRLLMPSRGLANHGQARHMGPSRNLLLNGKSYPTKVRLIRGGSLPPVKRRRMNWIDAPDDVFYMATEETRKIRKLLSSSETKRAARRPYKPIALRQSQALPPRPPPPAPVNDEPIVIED
Sequence of HDAC1-MTA1-RBBP4 (Q09028 whole entry partner): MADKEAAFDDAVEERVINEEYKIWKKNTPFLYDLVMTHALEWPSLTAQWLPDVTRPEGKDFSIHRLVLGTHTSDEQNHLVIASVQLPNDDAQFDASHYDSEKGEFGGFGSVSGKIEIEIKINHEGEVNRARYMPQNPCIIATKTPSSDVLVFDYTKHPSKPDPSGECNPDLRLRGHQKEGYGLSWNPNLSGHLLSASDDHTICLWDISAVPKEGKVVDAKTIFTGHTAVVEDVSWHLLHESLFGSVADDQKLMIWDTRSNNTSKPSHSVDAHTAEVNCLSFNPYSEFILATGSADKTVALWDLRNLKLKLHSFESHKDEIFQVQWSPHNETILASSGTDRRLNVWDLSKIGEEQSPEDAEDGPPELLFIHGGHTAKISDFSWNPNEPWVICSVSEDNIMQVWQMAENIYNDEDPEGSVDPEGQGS

Molecule: O=C(/C=C/c1cccc(S(=O)(=O)Nc2ccccc2)c1)NO [Belinostat]
HDAC specificity, result in words (various HDACs): nonspecific across various HDACs

Molecule: O=C(CCCCCCC(=O)Nc1ccccc1)NO [Vorinostat]
HDAC specificity, result in words (various HDACs): nonspecific across various HDACs

Molecule: CC(=O)N[C@@H](CCCCN)C(=O)N[C@@H](C)C(=O)N[C@@H](C)C(=O)N[C@@H](CCCNC(=N)N)C(=O)N[C@@H](CCCCCC(=O)NO)C(=O)N[C@@H](CO)C(=O)N[C@@H](C)C(N)=O [SPI 11] (Ac-KAAR[Asu](NHOH)SA-NH2)
HDAC inhibition, result in words (HDAC1-MTA1-RBBP4; BOC-Lys-AMC substrate, pH 7.5, tested concentration not given): comparable to our previously reported SPI based on the H4 peptide sequence

Molecule: Romidepsin
HDAC specificity, result in words (various HDACs): nonspecific across various HDACs

IC50 (HDAC1-MTA1-RBBP4; 100 M BOC-Lys-AMC substrate (so in the source), 50 mM Tris pH 7.5, 150 mM NaCl, 5% Glycerol, developer TSA/Trypsin, fluorescence 335/460 nm, triplicate, one-site binding fit, unit printed µM in SI): 17 µM
Molecule: CCC(=O)CCCCC[C@H](NC(=O)[C@H](CCCNC(=N)N)NC(=O)[C@H](C)NC(=O)[C@H](C)NC(=O)[C@H](CCCCN)NC(C)=O)C(=O)N[C@@H](CO)C(=O)N[C@@H](C)C(N)=O [SPI 12] (Ac-KAAR[X1]SA-NH2)

Molecule: Apicidin A
HDAC inhibition, result in words (class I HDAC): class I selective HDAC inhibition in the nanomolar range

Molecule: Cc1[nH]c2ccccc2c1CCNCc1ccc(/C=C/C(=O)NO)cc1 [Panobinostat]
HDAC specificity, result in words (various HDACs): nonspecific across various HDACs
